PMC11876671, “Investigating blood–brain barrier penetration and neurotoxicity of natural products for central nervous system drug development” (Scientific Reports, 2025)
Structures can show the parent of a compound that is named as a salt. Where two headings read alike, the source gives them in different places.

Legend:
[1] = tested on: GFP-labeled iPSC-derived human cortical glutamatergic neurons; test: cells; type: cell-based; details: for AC50: Table S1, total neurite length, 48 hr, head prints no unit, µM per Table 1 and Fig. 5, read-out: TNL AC50 (48 hr)
[2] = tested on: GFP-labeled iPSC-derived human cortical glutamatergic neurons; test: cells; details: Neuron, 48 h, read-out: Viability AC50 (48hr)
in vitro = details: PAMPA, PAMPA-BBB Pe
[3] = for PAMPA-BBB Pe(10^-6 cm/sec): Table S3: compounds exhibiting low PAMPA-BBB permeability
[4] = Table S1, 60 min, room temperature, 0.05 mM
[5] = Table S2: compounds exhibiting moderate to high PAMPA-BBB permeability

Compound | AC50 ([1]; Homo sapiens, Neuron) | Papp (in vitro; [4]) | also measured
C[C@H]1COC2=C1C(=O)C(=O)c1c2ccc2c1CCCC2(C)C [Cryptotanshinone] | 21.1 µM | 120 nm/s | AC50 [2]: 19.8 µM
OCC=Cc1ccccc1 [Cinnamyl alcohol] | 5.95 µM | 974 nm/s | PAMPA-BBB Pe [3, 5]: 97 10^-6 cm/sec; Papp (in vitro; [5]): 690 nm/s
CCOc1ccc(O)cc1 [Hydroquinone monoethyl ether] | 13.6 µM | 350 nm/s | 
COc1cc2c(c(OC)c1OC)-c1c(cc(OC)c(OC)c1OC)C[C@H](C)[C@H](C)C2 [Deoxyschizandrin] | 15.9 µM | 1710 nm/s | 
CN1[C@@H](CC(=O)c2ccccc2)CCC[C@H]1C[C@H](O)c1ccccc1 [Lobeline hydrochloride] | 9.96 µM | 318 nm/s | AC50 [2]: 22.5 µM; Papp (in vitro; [5]): 320 nm/s
CC(=O)c1c(O)cccc1O [NCGC00166008-01] | 1.98 µM | 447 nm/s | 
COc1ccc(CC(=O)c2ccc(O)cc2O)cc1 [ONONETIN] | 24.5 µM | 1720 nm/s | PAMPA-BBB Pe [3, 5]: 172 10^-6 cm/sec
C=C[C@@H](C1=CC(=O)C(OC)=C(OC)C1=O)c1ccccc1 [NCGC00160161-01] | 1.07 µM | 698 nm/s | AC50 [2]: 6.54 µM; Papp (in vitro; [5]): 700 nm/s
CC[C@@]1(O)C[C@H](O[C@H]2C[C@H](N(C)C)[C@H](O)[C@H](C)O2)c2c(cc3c(c2O)C(=O)c2c(O)ccc(O)c2C3=O)[C@H]1C(=O)OC [NCGC00178933-02] | 0.475 µM | 319 nm/s | AC50 [2]: 0.81 µM; Papp (in vitro; [5]): 320 nm/s
CC[C@H](C)[C@H]1O[C@]2(C=C[C@@H]1C)C[C@@H]1C[C@@H](C/C=C(\C)[C@@H](O[C@H]3C[C@H](OC)[C@@H](O[C@H]4C[C@H](OC)[C@@H](O)[C@H](C)O4)[C@H](C)O3)[C@@H](C)/C=C/C=C3\CO[C@@H]4[C@H](O)C(C)=C[C@@H](C(=O)O1)[C@]34O)O2 [Avermectin B1A] | 25.9 µM | 350 nm/s | AC50 [2]: 17.2 µM
CN1CCC2=C[C@@H](O)[C@@H]3OC(=O)c4cc5c(cc4[C@H]3C21)OCO5 (stereo partly drawn) [NCGC00160234-01] | 2.22 µM | 223 nm/s | Papp (in vitro; [5]): 220 nm/s
S=c1ccss1 [D3T, 3H-1,2-dithiole-3-thione] | 51.2 µM | 978 nm/s | 
O=c1c(-c2ccc(O)cc2)coc2cc(O)cc(O)c12 [Genistein] | 33.4 µM | 354 nm/s | Papp (in vitro; [5]): 350 nm/s
CO[C@@H]1[C@@H](O[C@@H]2O[C@H](C)[C@@H](O[C@H]3C[C@@](C)(O)[C@@H](OC(=O)CC(C)C)[C@H](C)O3)[C@H](N(C)C)[C@H]2O)[C@@H](CC=O)C[C@@H](C)C(=O)/C=C/[C@@H]2O[C@H]2C[C@@H](C)OC(=O)C[C@H]1OC(C)=O [Magnamycin A/Carbomycin A] | 27.1 µM | 319 nm/s | Papp (in vitro; [5]): 320 nm/s
Oc1ccc(C2=Cc3ccc(O)cc3OC2)cc1 [Phenoxodiol] | 8.86 µM | 1450 nm/s | AC50 [2]: 4.33 µM
Cn1cccc1-c1cccnc1 [beta-NICOTYRINE] | 8.46 µM | 1020 nm/s | 
COc1cc2c(O)c3c(c(-c4ccc5c(c4)OCO5)c2cc1OC)C(=O)OC3 [NCGC00077816-01] | 11 µM | 1870 nm/s | AC50 [2]: 6.51 µM
CC(C)=CCOc1c2occc2cc2ccc(=O)oc12 [Imperatorin] | 16.7 µM | 1600 nm/s | 
COc1ccc(/C=C/C(=O)c2ccc(O)cc2O)cc1OC [2',4'-DIHYDROXY-3,4-DIMETHOXYCHALCONE] | 5.97 µM | 3120 nm/s | PAMPA-BBB Pe [3, 5]: 312 10^-6 cm/sec
COc1cc(C2c3cc4c(c(O)c3CC3COC(=O)C32)OCO4)cc(OC)c1O (stereo not drawn) [Alpha-Peltatin] | 0.003 µM | 142 nm/s | AC50 [2]: 0.002 µM
COc1cc([C@@H]2c3cc4c(cc3C[C@H]3COC(=O)[C@@H]32)OCO4)cc(OC)c1O [(5R,5aR,8aR)-5-(4-hydroxy-3,5-dimethoxyphenyl)-5,8,8a,9-tetrahydrofuro[3',4':6,7]naphtho[2,3-d][1,3]dioxol-6(5aH)-one] | 0.585 µM | 112 nm/s | AC50 [2]: 0.656 µM; Papp (in vitro; [5]): 110 nm/s
O=C1NC(=O)C(c2c[nH]c3ccccc23)=C1c1c[nH]c2ccccc12 [Bisindolylmaleimide IV] | 10.6 µM | > 6540 nm/s | AC50 [2]: 13.9 µM

Compound | AC50 ([1]; Homo sapiens, Neuron) | Papp (in vitro; [4]) | also measured
CC1(C)C=Cc2c(ccc(C(=O)/C=C/c3ccccc3)c2O)O1 [NCGC00187466-01] | 2.18 µM | 102 nm/s | 
COc1cc(C)cc(O)c1 [3-methoxy-5-methylphenol] | 13.4 µM | 497 nm/s | 
Desoxycortone |  |  | AC50 [1]: 33.5 µM; PAMPA-BBB Pe [3, 4]: 65.13 10^-6 cm/sec
COC(=O)[C@@H]1[C@@H]2C[C@H]3c4[nH]c5ccccc5c4CCN3C[C@@H]2CC[C@@H]1O [Beta-yohimbine] | 11.8 µM |  | Papp (in vitro): 418 nm/s
CC(=O)O[C@@H]1C[C@@]2(C)[C@H](c3ccoc3)C[C@H]3O[C@]32[C@]2(C)C(=O)C(O)=C3C(C)(C)C(=O)C=C[C@]3(C)C12 (stereo partly drawn) [NCGC00179158-03] | 2.77 µM | 176 nm/s | AC50 [2]: 2.35 µM; Papp (in vitro; [5]): 180 nm/s
CCCCCc1cc(O)c2c(c1)OC(C)(C)c1ccc(C)cc1-2 [Cannabinol] | 28.2 µM | 206 nm/s | AC50 [2]: 35.2 µM; Papp (in vitro; [5]): 210 nm/s
O=c1c2ccccc2oc2ccccc12 [Xanthenone] | 18.6 µM | 1730 nm/s | 
CCCCCC(=O)Cc1cc(O)cc(O)c1C(=O)Oc1cc(CC(=O)CCCCC)c(C(=O)O)c(OC)c1 [NCGC00095554-03] | 6.66 µM |  | PAMPA-BBB Pe [3, 4]: >1000 10^-6 cm/sec; PAMPA-BBB Pe [3, 5]: >1000 10^-6 cm/sec
c1cc2c(cc1[C@H]1OC[C@H]3[C@@H]1CO[C@@H]3c1ccc3c(c1)OCO3)OCO2 [Sesamin] | 14.2 µM | 2110 nm/s | Papp (in vitro; [5]): 2110 nm/s
C/C(=C\COc1c2ccoc2cc2oc(=O)ccc12)CCC(O)C(C)(C)O (stereo not drawn) [6,7-dihydroxy Bergamottin] | 6.03 µM | 547 nm/s | 
COC1=C[C@@]23CCN(C)[C@H](Cc4ccc(OC)c(O)c42)C3=CC1=O [(-)-Sinoacutine] | 15.2 µM | 115 nm/s | 
CC=C1CN2CC[C@]34C(=C(C=O)[C@@H]1C[C@H]23)Nc1c(O)cccc14 [NCGC00160220-01] | 0.157 µM | 182 nm/s | PAMPA-BBB Pe [3, 5]: 18 10^-6 cm/sec
C=C(C)[C@H]1Cc2c(ccc3c2O[C@@H]2COc4cc(OC)c(OC)cc4[C@@H]2C3=O)O1 [rotenone, reference compound] |  |  | inhibition of cortical neurite outgrowth (total neurite length) ([1]; 24 and 48 h treatment, in words): inhibited cortical neurite outgrowth in a concentration-dependent manner
O=C1C=C2C=C[C@@H]3C[C@@]2(O1)[C@H]1CCCCN31 [Securinine] | 16.2 µM | 220 nm/s | PAMPA-BBB Pe [3, 5]: 22 10^-6 cm/sec
CC1(C)OC1COc1c2occc2cc2ccc(=O)oc12 (stereo not drawn) [NCGC00160222-01] | 24.5 µM | 2100 nm/s | 
CSC(=S)NCc1c[nH]c2ccccc12 [BRASSININ] | 6.34 µM | 2670 nm/s | PAMPA-BBB Pe [3, 5]: 267 10^-6 cm/sec
Cn1cnc2c(ncn2[C@@H]2O[C@H](CO)[C@@H](O)[C@H]2O)c1=N [NCGC00163305-01] |  |  | PAMPA-BBB Pe(10^-6 cm/sec) [3]: <1 10^-6 cm/sec
C/C=C(/C)C(=O)O[C@H]1CC(C)=CC(=O)[C@@]2(C)CC[C@@](O)(C(C)C)[C@H]12 [NCGC00163582-01] |  |  | PAMPA-BBB Pe [3, 5]: 125 10^-6 cm/sec
c1cnc2c(-c3nccc4c3[nH]c3ccccc34)cccc2c1 [NCGC00160283-01] |  |  | PAMPA-BBB Pe [3, 5]: 352 10^-6 cm/sec
O=C(/C=C/c1ccc(O)c(O)c1)OCCc1ccccc1 [PHENETHYL CAFFEATE] |  |  | PAMPA-BBB Pe [3, 5]: >1000 10^-6 cm/sec
COC(=O)C(O)C(O)(CCC(C)C)C(=O)OC1C(OC)=CC23CCCN2CCc2cc4c(cc2C13)OCO4 (stereo not drawn) [NCGC00161614-01] |  |  | PAMPA-BBB Pe(10^-6 cm/sec) [3]: <1 10^-6 cm/sec
COc1cc(/C=C/C(=O)c2ccc(O)cc2O)ccc1O [NCGC00163564-01] |  |  | PAMPA-BBB Pe [3, 5]: 188 10^-6 cm/sec
